{"source": "paper PMC12263571", "about": "“Antiviral effects of mogroside V against porcine reproductive and respiratory syndrome virus in vitro” (Frontiers in Microbiology, 2025)", "key": {"[1]": {"tested_on": "HP-PRRSV-GFP", "assay": "Antiviral assay (TCID50, RT-qPCR, IFA) against HP-PRRSV-GFP strain in Marc-145 and PAM cells", "type": "cell-based, porcine reproductive and respiratory syndrome virus", "experimental": "(§1) To investigate the stage-specific antiviral effects of mogroside V (MV) and evaluate its ability to inhibit PRRSV replication in Marc-145 and PAM cells, three distinct treatment groups were established for in vitro evaluation: pre-treatment group, post-treatment group, and co-treatment group. Viral replication was assessed through multiple approaches: quantification of viral mRNA copies by RT-qPCR, determination of viral titers using the TCID50 method, and analysis of PRRSV N protein expression via immunofluorescence assay (IFA). The experimental design was as follows:\n(§2) Pre-treatment group: to investigate the preventive effect of MV prior to PRRSV infection, Marc-145 or PAM cells were pretreated with MV before viral challenge. Cells in good growth condition were seeded in 6-well plates and cultured until monolayer formation. After removing the old medium, cells were washed twice with PBS, followed by incubation with varying concentrations of MV for 24 h. The drug was then removed, and cells were washed twice with PBS before infection with PRRSV (100 TCID50) for 48 h. Subsequently, viral mRNA copies, viral titers, and PRRSV N protein fluorescence expression were measured to calculate viral inhibition rates.\n(§3) Post-treatment group: In order to investigate the effect of MV on PRRSV infection, MV was added after Marc-145 or PAM cells were infected with PRRSV. The cells with good growth status were inoculated in the 6-well cell culture plate. After the cells grew to monolayer, the old medium was discarded and the cells were cleaned twice with PBS. PRRSV (100 TCID50) was inoculated and incubated for 1 h, during which the virus could be shaken repeatedly to fully interact with cells. The virus venom was removed, washed twice with PBS, and incubated with different concentrations of MV for 48 h. After that, the viral mRNA copies and viral titer were detected, the viral inhibition rate was calculated, and the fluorescence expression of PRRSV N protein was observed.\n(§4) Co-treatment group: In order to study the direct effect of MV on PRRSV, PRRSV and MV were simultaneously inoculated in Marc-145 or PAM cells for treatment. The cells with good growth status were inoculated in the 6-well cell culture plate. After the cells grew to monolayer, the old medium was discarded and the cells were cleaned twice with PBS. MV at different concentrations was mixed with PRRSV (100 TCID50) and inoculated into Marc-145 and PAM cells for 48 h. After that, the viral mRNA copies and viral titer were detected, viral inhibition rate was calculated, and the fluorescence expression of PRRSV N protein was observed.\n(§5) Real-time quantitative PCR (RT-qPCR) was performed to determine PRRSV gene expression levels. Viral RNA was extracted from cell culture supernatants using a commercial viral DNA/RNA extraction kit according to the manufacturer's protocol, with subsequent storage at −80°C until further analysis. RT-qPCR amplification were conducted using TransScript Green One-Step qRT-PCR SuperMix kit.\n(§6) The supernatant from 6-well culture plates was collected into 1.5 mL microcentrifuge tubes and stored at −80°C for subsequent analysis. Cells were washed twice with PBS and fixed with ice-cold methanol for 15 min at room temperature. Non-specific binding sites were blocked with 1% BSA containing 0.05% Tween 20 for 30 min at ambient temperature. Cells were then incubated with anti-PRRSV N protein monoclonal antibody either for 2 h at 37°C or overnight at 4°C. Following primary antibody incubation, cells were treated with fluorophore-conjugated secondary antibody (goat anti-mouse IgG, Alexa Fluor 488) for 1 h at 37°C. Nuclei were counterstained with DAPI for 10 min at room temperature protected from light. Fluorescence microscopy was performed to examine the subcellular distribution and expression levels of PRRSV N protein. Stained cell monolayers were visualized under 4 × , 10 × , and 20 × objective lenses using an epifluorescence microscope. […]"}, "[2]": {"tested_on": "NADC30 strain", "assay": "Antiviral assay (TCID50, RT-qPCR, IFA) against NADC30 strain in Marc-145 and PAM cells", "type": "cell-based, porcine reproductive and respiratory syndrome virus", "conditions": "for viral titers: co-treatment; for PRRSV N protein expression (IFA): PAMs, pre-treatment", "experimental": "as §1, §2, §3, §4, §5, §6"}, "[3]": {"tested_on": "Porcine alveolar macrophages (PAMs)", "assay": "CCK-8 cytotoxicity assay in PAM cells", "type": "cell-based", "experimental": "(§7) The cytotoxicity of MV was assessed using the Cell Counting Kit-8 (CCK-8) assay to determine cell viability. Porcine alveolar macrophages (PAMs) and Marc-145 cells were seeded in 96-well plates and treated with varying concentrations of MV (0, 100, 200, 400 or 800 μM) for 24, 48, 72, and 96 h. Following the manufacturer's protocol, CCK-8 reagent was added to each well, and cells were incubated for 2 h at 37°C under 5% CO2. Absorbance was measured at 450 nm using a microplate reader. Cell viability (%) was calculated using the formula:Cell viability (%) = [OD (sample) – OD (blank)/OD (control) – OD (blank)] × 100%, where OD (blank) represents the background absorbance of cell-free medium, and OD (control) denotes untreated cells.\n(§8) The half-maximal inhibitory concentration (IC50) value for MV-mediated cytotoxicity was calculated through nonlinear regression fitting of dose-response curves."}, "[4]": {"tested_on": "immunomodulatory cytokines gene expression in PAMs", "assay": "RT-qPCR of immunoregulatory factor gene expression in PAMs", "type": "cell-based, porcine"}, "[5]": {"tested_on": "Marc-145 cells", "assay": "CCK-8 cytotoxicity assay in Marc-145 cells", "type": "cell-based", "experimental": "as §7, §8"}, "[6]": {"tested_on": "PRRSV", "assay": "Antiviral assay against PRRSV, both strains (HP-PRRSV-GFP and NADC30) taken together", "type": "cell-based, porcine reproductive and respiratory syndrome virus", "experimental": "as §1, §2, §3, §4, §5, §6"}, "[7]": {"conditions": "Marc-145 and PAM cells, 400 μM MV"}, "[8]": {"conditions": "Marc-145 and PAM cells, MV ≤ 200 μM"}, "[9]": {"conditions": "pre-treatment, 400 μM MV, both cell types, vs untreated controls, P < 0.01"}}, "note": "Read-outs that look alike come from different tables or passages of the source."}
{"smiles": "C[C@H](CC[C@@H](O[C@@H]1O[C@H](CO[C@@H]2O[C@H](CO)[C@@H](O)[C@H](O)[C@H]2O)[C@@H](O)[C@H](O)[C@H]1O[C@@H]1O[C@H](CO)[C@@H](O)[C@H](O)[C@H]1O)C(C)(C)O)[C@H]1CC[C@@]2(C)[C@@H]3CC=C4[C@@H](CC[C@H](O[C@@H]5O[C@H](CO[C@@H]6O[C@H](CO)[C@@H](O)[C@H](O)[C@H]6O)[C@@H](O)[C@H](O)[C@H]5O)C4(C)C)[C@]3(C)[C@H](O)C[C@]12C", "note": "[MV, Mogroside V]", "values": [{"measurement": "increase in mRNA inhibition, 400 μM vs 200 μM", "setting": "[1]; Marc-145 and PAM cells", "result": 53, "unit": "percentage-point"}, {"measurement": "increase in viral titer inhibition, 400 μM vs 200 μM", "setting": "[1]; Marc-145 and PAM cells", "result": 52, "unit": "percentage-point"}, {"measurement": "average mRNA inhibition rate", "setting": "[1]; [7]", "result": "exceeding 95%"}, {"measurement": "average viral titer inhibition rate", "setting": "[1]; [7]", "result": "exceeding 95%"}, {"measurement": "average mRNA inhibition rate", "setting": "[1]; [8]", "result": "below 42%"}, {"measurement": "average viral titer inhibition rate", "setting": "[1]; [8]", "result": "below 43%"}, {"measurement": "viral titers", "setting": "[1]; Marc-145 cells, co-treatment, 400 μM MV", "result": "below the detection threshold"}, {"measurement": "viral titers", "setting": "[1]; PAM cells, co-treatment, 400 μM MV", "result": "below the detection threshold"}, {"measurement": "viral mRNA copies", "setting": "[1]; PAMs, pre-treatment, 200 μM MV, P < 0.05", "result": "significantly suppressed"}, {"measurement": "viral titers", "setting": "[1]; PAMs, pre-treatment, 200 μM MV, P > 0.05", "result": "no significant reduction"}, {"measurement": "enhancement in mRNA inhibition, 400 μM vs 200 μM", "setting": "[2]; Marc-145 and PAM cells", "result": 49, "unit": "percentage-point"}, {"measurement": "improvement in viral titer inhibition, 400 μM vs 200 μM", "setting": "[2]; Marc-145 and PAM cells", "result": 43, "unit": "percentage-point"}, {"measurement": "average mRNA inhibition rate", "setting": "[2]; [7]", "result": "> 94", "unit": "%"}, {"measurement": "average viral titer inhibition rate", "setting": "[2]; [7]", "result": "> 98", "unit": "%"}, {"measurement": "average mRNA inhibition rate", "setting": "[2]; [8]", "result": "below 45%"}, {"measurement": "average viral titer inhibition rate", "setting": "[2]; [8]", "result": "below 55%"}, {"measurement": "viral titers", "setting": "[2]; Marc-145 cells, 400 μM MV", "result": "below the detection threshold"}, {"measurement": "viral titers", "setting": "[2]; PAM cells, 400 μM MV (CPE in only two replicate wells)", "result": "approached the lower detection limit"}, {"measurement": "PRRSV N protein expression (IFA)", "setting": "[2]; 400 μM MV, P < 0.01", "result": "significantly reduced"}, {"measurement": "PRRSV N protein expression (IFA)", "setting": "[2]; 100 and 200 μM MV", "result": "no statistically significant effects"}, {"measurement": "cell viability", "setting": "[3]; PAM cells, 400 μM MV", "result": "exceeded 75%"}, {"measurement": "IC50", "setting": "[3]; PAM cells, 24 h, read-out: IC50 (cytotoxicity)", "result": 577, "unit": "µM"}, {"measurement": "IC50", "setting": "[3]; PAM cells, 48 h, read-out: IC50 (cytotoxicity)", "result": 599, "unit": "µM"}, {"measurement": "IC50", "setting": "[3]; PAM cells, 72 h, read-out: IC50 (cytotoxicity)", "result": 704, "unit": "µM"}, {"measurement": "IC50", "setting": "[3]; PAM cells, 96 h, read-out: IC50 (cytotoxicity)", "result": 582, "unit": "µM"}, {"measurement": "IC50", "setting": "[3]; all IC50 values, Marc-145 and PAM cells, 24-96 h, read-out: IC50 values, all", "result": "≥ 577", "unit": "µM"}, {"measurement": "pro-inflammatory cytokine storm, such as excessive TNF-α secretion", "setting": "[4]", "result": "no evidence of a pro-inflammatory cytokine storm"}, {"measurement": "IL-1 gene expression", "setting": "[4]; RT-qPCR", "result": "significantly upregulates"}, {"measurement": "IL-1β gene expression", "setting": "[4]; RT-qPCR", "result": "significantly upregulates"}, {"measurement": "IL-2 gene expression", "setting": "[4]; RT-qPCR", "result": "significantly upregulates"}, {"measurement": "IL-8 gene expression", "setting": "[4]; RT-qPCR", "result": "significantly upregulates"}, {"measurement": "IL-18 gene expression", "setting": "[4]; RT-qPCR", "result": "significantly upregulates"}, {"measurement": "cell viability", "setting": "[5]; Marc-145 cells, 400 μM MV", "result": "exceeded 75%"}, {"measurement": "IC50", "setting": "[5]; Marc-145 cells, 24 h", "result": 686, "unit": "µM"}, {"measurement": "IC50", "setting": "[5]; Marc-145 cells, 48 h", "result": 756, "unit": "µM"}, {"measurement": "IC50", "setting": "[5]; Marc-145 cells, 72 h", "result": 756, "unit": "µM"}, {"measurement": "IC50", "setting": "[5]; Marc-145 cells, 96 h", "result": 760, "unit": "µM"}, {"measurement": "maximum safe drug concentration", "setting": "[5]; PAM and Marc-145 cells", "result": 400, "unit": "µM"}, {"measurement": "inhibition rate for viral titers", "setting": "[6]; 200 μM MV, Marc-145 and PAM cells, mean values across all treatment groups", "result": 43, "unit": "%"}, {"measurement": "maximal inhibition of viral titers", "setting": "[6]; 400 μM MV", "result": "up to 100%"}, {"measurement": "greater suppression of viral mRNA, high- vs low-concentration group", "setting": "[6]; 400 μM vs 200 μM MV", "result": 51, "unit": "%"}, {"measurement": "viral fluorescence intensity (IFA)", "setting": "[6]; Marc-145 cells, pre-treatment, 400 μM MV, P < 0.01", "result": "markedly diminished"}, {"measurement": "PRRSV N protein expression (IFA)", "setting": "[6]; Marc-145 or PAM cells, 400 μM MV, post-infection and co-treatment regimens", "result": "no detectable PRRSV N protein expression"}, {"measurement": "viral replication in cells", "setting": "[6]; co-treatment, 400 μM MV, P < 0.01", "result": "markedly suppressed"}, {"measurement": "viral titers", "setting": "[6]; post-treatment (1 h post-infection), 400 μM MV, Marc-145 and PAM cells", "result": "undetectable levels"}, {"measurement": "viral mRNA copies", "setting": "[6]; post-treatment (1 h post-infection), 400 μM MV, Marc-145 and PAM cells, P < 0.01", "result": "significantly reduced"}, {"measurement": "PRRSV mRNA levels", "setting": "[6]; [9]", "result": "significantly reduced"}, {"measurement": "viral titers", "setting": "[6]; [9]", "result": "significantly reduced"}]}
